Key:
[1] = Final pediatric population PK model; format: in vivo, human
[2] = Observed C24 in P1093; format: in vivo; conditions: human, plasma, oral, Geometric mean C24, P1093, ≥ 6 to < 10 kg
[3] = healthy adult volunteers, same dose; cited from earlier work
[4] = maturation half-time, fixed; based on paracetamol; ref Anderson et al.; cited from earlier work
[5] = final PopPK model, reference 70-kg subject

SMILES: C[C@@H]1CCO[C@H]2Cn3cc(C(=O)NCc4ccc(F)cc4F)c(=O)c(O)c3C(=O)N12 [dolutegravir, Dolutegravir]
- KA (DT and granules) ([1]; calculated as 0.854 × 2.04): KA (DT and granules) = 1.74 (95% CI 1.20–2.28), calculated as 0.854 × 2.04 (95% CI 0.854 × 1.41–0.854 × 2.67)
- V/F~WT ([1]; effect of weight on V/F (exponent)): 0.556
- KA~DT and granules ([1]; final PopPK model, factor on KA of FCT): 2.04
- KA, FCT ([1]; final PopPK model, film-coated tablet): 0.854 h^–1
- CL/F [1, 5]: 1.03 L/h
- V/F [1, 5]: 13.6 L
- ω^2CL point estimate ([1]; inter-individual variability of CL/F, variance): 0.0863
- ω^2KA point estimate ([1]; inter-individual variability of KA, variance): 0.762
- ω^2V point estimate ([1]; inter-individual variability of V/F, variance): 0.0698
- ω^2IOV,KA point estimate ([1]; inter-occasion variability of KA, variance): 0.610
- F, fasted DT/granules ([1]; relative bioavailability): 1.53
- F, without regard to food, FCT ([1]; relative bioavailability): 1.10
- F, fasted FCT ([1]; relative bioavailability, reference, fixed): 1.00
- concentration at 24 h ([2]; 10 mg, < 6 months of age, DT 10 mg QD): 1820 ng/mL
- concentration at 24 h ([2]; 10 mg, ≥ 6 months of age, DT 10 mg QD): 735 ng/mL
- concentration at 24 h ([2]; 15 mg, ≥ 6 months of age, DT 15 mg QD): 908 ng/mL
- Relative bioavailability of DT vs granules [3]: comparable
- TM50 [4]: 52.2 FIX week

From PMC10520196 (Clinical Pharmacokinetics, 2023)
